Laboratory results published in patent US8802137B2, “Sustained release of antiinfectives” (Insmed Incorporated, priority 2002, dated 2014).
Like-named read-outs stand apart in the source and are kept apart here.

Experiments:
[1] = Clinical chemical assay (TDX) of aminoglycoside content in tissue of treated infected rats; type: in vivo; conditions: Sprague-Dawley, other: intratracheal (IT), 10 mg/rat
Method: […] The clinical chemical assay was performed using a TDX instrument while the bioassay was performed by measuring inhibition zones on agar plates embedded with Bacillus subtilis.

[2] = system: P. aeruginosa PA01; assay: In vitro release and activity in Slide-A-Lyzer cartridges, CFU after 24 hrs; type: cell-based; conditions: amikacin 50 μg/mL, preliminary experiments
Method: An in vitro test of release and activity was performed under conditions similar to the pharmacokinetics in the lung, where it has been previously shown that free antibiotic is cleared on the time scale of a few hours. […] Free drug dialyzes out of the cartridges on the time scale of hours under these conditions. After 24 hrs., the samples were withdrawn from the cartridges and plated to measure CFU.

[3] = system: rat alveolar macrophages; conditions: in vivo
Source text: The basal and stimulated functions of rat alveolar macrophages obtained by lavage were studied with and without administration of liposomal amikacin formulations and compared to various controls.

[4] = Bioavailability of amikacin from inhaled liposomal amikacin formulations: lung homogenate levels; conditions: CD IGS, rat, in vivo, 5 mg/kg
[5] = parameters: species or system rats; conditions: rat, in vivo
Method: The binding of aminoglycosides to sputum of CF patients is a concern, particularly if this binding reduces the bioactivity of the antiinfective (Hunt et al., 1995). To determine whether liposomal formulations of amikacin can retain biological activity over a prolonged period of time, normal rats were administered liposomal formulations of amikacin by intratracheal instillation. This was followed by its removal at 2 or 24 hours via a bronchial alveolar lavage (BAL) to determine biological activity. […] Amikacin concentration was determined employing a TDX instrument and biological activity determined using a Mueller Hinton broth dilution assay (Pseudomonas aeruginosa).

[6] = mouse, in vivo, po, 15 mg/kg
[7] = lung homogenate, homogenized rat lungs following the 14 day experiment, read-out: Clinical Assay

## NCC[C@H](O)C(=O)N[C@@H]1C[C@H](N)[C@@H](O[C@H]2O[C@H](CN)[C@@H](O)[C@H](O)[C@H]2O)[C@H](O)[C@H]1O[C@H]1O[C@H](CO)[C@@H](O)[C@H](N)[C@H]1O [Free amikacin, amikacin]
[1]; [7]
  concentration at 14 day: 2000 ng/mL
[2]
  reduction of CFUs: only slightly reduced the CFU
[3]
  inflammatory response in the lungs (nitrates and TNF-α in BALF): did not produce a significant acute or delayed inflammatory response
[4]
  concentration at 24 h: ~500000 ng/g

## NC[C@H]1O[C@H](O[C@H]2[C@H](O)[C@@H](O[C@H]3O[C@H](CO)[C@@H](O)[C@H](N)[C@H]3O)[C@H](N)C[C@@H]2N)[C@H](N)C[C@@H]1O [Free tobramycin, tobramycin]
[5]
  drug in a BAL: undetectable
[1]; [7]
  concentration at 14 day: 1400 ng/mL
[1]; rat, kidney, kidneys, following the 14 day experiment, read-out: detectable levels of aminoglycoside in the kidneys
  concentration at 14 day: 100 ng/mL

## O=C(O)c1cn(C2CC2)c2cc(N3CCNCC3)c(F)cc2c1=O [free ciprofloxacin, ciprofloxacin]
[6]
  detectability of drug in the lung over time: undetectable in less than two hours
